# Reference: US20230365592A1 (Agios Pharmaceuticals, Inc., priority 2022, published 2023)
# Molecular target: T1, human PAH with the R408W mutation (Homo sapiens, UniProt P00439, R408W)
# T1 construct: expressed in transfected cells
# T1 sequence (P00439 1-452 R408W): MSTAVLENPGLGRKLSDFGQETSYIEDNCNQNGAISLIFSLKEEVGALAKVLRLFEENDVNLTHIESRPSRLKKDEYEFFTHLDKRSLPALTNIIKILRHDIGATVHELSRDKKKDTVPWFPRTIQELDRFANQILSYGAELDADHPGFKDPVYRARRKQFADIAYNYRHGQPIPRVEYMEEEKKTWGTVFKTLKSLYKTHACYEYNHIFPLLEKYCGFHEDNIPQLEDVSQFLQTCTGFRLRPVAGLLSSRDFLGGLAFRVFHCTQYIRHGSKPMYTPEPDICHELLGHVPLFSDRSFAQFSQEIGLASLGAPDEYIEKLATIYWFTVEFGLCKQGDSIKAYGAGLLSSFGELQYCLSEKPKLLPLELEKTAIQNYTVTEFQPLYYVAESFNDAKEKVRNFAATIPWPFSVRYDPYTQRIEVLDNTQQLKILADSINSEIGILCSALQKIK
# Assay: Cell Based Phenylalanine Flux Assay;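 also: after compound treatment, cells received sepiapterin plus isotope-labelled Phenylalanine for 4 hours, then labelled Tyrosine in the medium was quantified, 10-point 2-fold dilution series run in duplicate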
# Details: A375 cells expressing human R408W PAH; 24 hrs compound incubation; 13C-Tyrosine by LC-MS; average where tested multiple times; read-out: AC50
row,AC50 [µM],SMILES
1,1 to 5,"Cc1cccc2cc([C@H]3c4nc[nH]c4CCN3C(=O)c3oc(C(C)(C)F)nc3C(F)F)nn12 [Example 1231, (R)-(4-(difluoromethyl)-2-(2-fluoropropan-2-yl)oxazol-5-yl)(4-(7-methylpyrazolo[1,5-a]pyridin-2-yl)-6,7-dihydro-1H-imidazo[4,5-c]pyridin-5(4H)-yl)methanone]"
2,< 0.5,"CC(C)(F)c1nc(C(F)F)c(C(=O)N2CCc3[nH]cnc3[C@H]2c2cc3cccc(Cl)n3n2)o1 [Example 1232, (S)-(4-(7-chloropyrazolo[1,5-a]pyridin-2-yl)-6,7-dihydro-1H-imidazo[4,5-c]pyridin-5(4H)-yl)(4-(difluoromethyl)-2-(2-fluoropropan-2-yl)oxazol-5-yl)methanone]"
3,1 to 5,"CC(C)(F)c1nc(C(F)F)c(C(=O)N2CCc3[nH]cnc3[C@@H]2c2cc3cccc(Cl)n3n2)o1 [Example 1233, (R)-(4-(7-chloropyrazolo[1,5-a]pyridin-2-yl)-6,7-dihydro-1H-imidazo[4,5-c]pyridin-5(4H)-yl)(4-(difluoromethyl)-2-(2-fluoropropan-2-yl)oxazol-5-yl)methanone]"
4,< 0.5,"O=C(c1oc(C2(O)CC2)nc1C(F)F)N1CCc2[nH]cnc2[C@H]1c1cc2c(F)cccn2n1 [Example 1234, (S)-(4-(difluoromethyl)-2-(1-hydroxycyclopropyl)oxazol-5-yl)(4-(4-fluoropyrazolo[1,5-a]pyridin-2-yl)-6,7-dihydro-1H-imidazo[4,5-c]pyridin-5(4H)-yl)methanone]"
5,1 to 5,"O=C(c1oc(C2(O)CC2)nc1C(F)F)N1CCc2[nH]cnc2[C@@H]1c1cc2c(F)cccn2n1 [Example 1235, (R)-(4-(difluoromethyl)-2-(1-hydroxycyclopropyl)oxazol-5-yl)(4-(4-fluoropyrazolo[1,5-a]pyridin-2-yl)-6,7-dihydro-1H-imidazo[4,5-c]pyridin-5(4H)-yl)methanone]"
6,< 0.5,"O=C(c1oc(C2(O)CC2)nc1C(F)F)N1CCc2[nH]cnc2[C@H]1c1cc2cccc(Cl)n2n1 [Example 1236, (S)-(4-(7-chloropyrazolo[1,5-a]pyridin-2-yl)-6,7-dihydro-1H-imidazo[4,5-c]pyridin-5(4H)-yl)(4-(difluoromethyl)-2-(1-hydroxycyclopropyl)oxazol-5-yl)methanone]"
7,1 to 5,"O=C(c1oc(C2(O)CC2)nc1C(F)F)N1CCc2[nH]cnc2[C@@H]1c1cc2cccc(Cl)n2n1 [Example 1237, (R)-(4-(7-chloropyrazolo[1,5-a]pyridin-2-yl)-6,7-dihydro-1H-imidazo[4,5-c]pyridin-5(4H)-yl)(4-(difluoromethyl)-2-(1-hydroxycyclopropyl)oxazol-5-yl)methanone]"
8,< 0.5,"CC(C)(O)c1nc(C(F)F)c(C(=O)N2CCc3[nH]cnc3[C@H]2c2cc3cccc(F)n3n2)o1 [Example 1238, (S)-(4-(difluoromethyl)-2-(2-hydroxypropan-2-yl)oxazol-5-yl)(4-(7-fluoropyrazolo[1,5-a]pyridin-2-yl)-6,7-dihydro-1H-imidazo[4,5-c]pyridin-5(4H)-yl)methanone]"
9,1 to 5,"CC(C)(O)c1nc(C(F)F)c(C(=O)N2CCc3[nH]cnc3[C@@H]2c2cc3cccc(F)n3n2)o1 [Example 1239, (R)-(4-(difluoromethyl)-2-(2-hydroxypropan-2-yl)oxazol-5-yl)(4-(7-fluoropyrazolo[1,5-a]pyridin-2-yl)-6,7-dihydro-1H-imidazo[4,5-c]pyridin-5(4H)-yl)methanone]"
10,< 0.5,"CCOc1cccc2cc([C@@H]3c4nc[nH]c4CCN3C(=O)c3ocnc3C(F)F)nn12 [Example 1240, (S)-(4-(difluoromethyl)oxazol-5-yl)(4-(7-ethoxypyrazolo[1,5-a]pyridin-2-yl)-6,7-dihydro-1H-imidazo[4,5-c]pyridin-5(4H)-yl)methanone]"

# Further lines, the compound ahead of its results:
row,SMILES,AC50 [µM]
1,"Cc1c(-c2nnc(C(=O)N3CCc4[nH]cnc4[C@H]3c3cc4cccc(Cl)n4n3)o2)cnn1C [Example 1208, (S)-(4-(7-chloropyrazolo[1,5-a]pyridin-2-yl)-6,7-dihydro-1H-imidazo[4,5-c]pyridin-5(4H)-yl)(5-(1,5-dimethyl-1H-pyrazol-4-yl)-1,3,4-oxadiazol-2-yl)methanone]",< 0.5
2,"Cc1c(-c2nnc(C(=O)N3CCc4[nH]cnc4[C@@H]3c3cc4cccc(Cl)n4n3)o2)cnn1C [Example 1209, (R)-(4-(7-chloropyrazolo[1,5-a]pyridin-2-yl)-6,7-dihydro-1H-imidazo[4,5-c]pyridin-5(4H)-yl)(5-(1,5-dimethyl-1H-pyrazol-4-yl)-1,3,4-oxadiazol-2-yl)methanone]",> 5
3,"Cc1nc(C(C)(C)O)oc1C(=O)N1CCc2[nH]cnc2[C@H]1c1cc2cccc(Cl)n2n1 [Example 1210, (S)-(4-(7-chloropyrazolo[1,5-a]pyridin-2-yl)-6,7-dihydro-1H-imidazo[4,5-c]pyridin-5(4H)-yl)(2-(2-hydroxypropan-2-yl)-4-methyloxazol-5-yl)methanone]",0.5 to 1
4,"Cc1nc([C@H](C)O)oc1C(=O)N1CCc2[nH]cnc2[C@H]1c1cc2cccc(Cl)n2n1 [Example 1212, ((S)-4-(7-chloropyrazolo[1,5-a]pyridin-2-yl)-6,7-dihydro-1H-imidazo[4,5-c]pyridin-5(4H)-yl)(2-((S)-1-hydroxyethyl)-4-methyloxazol-5-yl)methanone]",0.5 to 1
5,"Cc1c(-c2nnc(C(=O)N3CCc4[nH]cnc4[C@@H]3c3cc4c(Cl)cccn4n3)o2)cnn1C [Example 1215, (R)-(4-(4-chloropyrazolo[1,5-a]pyridin-2-yl)-6,7-dihydro-1H-imidazo[4,5-c]pyridin-5(4H)-yl)(5-(1,5-dimethyl-1H-pyrazol-4-yl)-1,3,4-oxadiazol-2-yl)methanone]",> 5
6,"Cc1cccn2nc([C@H]3c4nc[nH]c4CCN3C(=O)c3oc(C(C)(C)F)nc3C(F)F)cc12 [Example 1217, (R)-(4-(difluoromethyl)-2-(2-fluoropropan-2-yl)oxazol-5-yl)(4-(4-methylpyrazolo[1,5-a]pyridin-2-yl)-6,7-dihydro-1H-imidazo[4,5-c]pyridin-5(4H)-yl)methanone]",< 0.5
7,"CC(C)(F)c1nc(C(F)F)c(C(=O)N2CCc3[nH]cnc3[C@@H]2c2cc3c(C(F)(F)F)cccn3n2)o1 [Example 1219, (R)-(4-(difluoromethyl)-2-(2-fluoropropan-2-yl)oxazol-5-yl)(4-(4-(trifluoromethyl)pyrazolo[1,5-a]pyridin-2-yl)-6,7-dihydro-1H-imidazo[4,5-c]pyridin-5(4H)-yl)methanone]",0.5 to 1
8,"Cc1cccn2nc([C@H]3c4nc[nH]c4CCN3C(=O)c3oc(C4(O)CC4)nc3C(F)F)cc12 [Example 1221, (R)-(4-(difluoromethyl)-2-(1-hydroxycyclopropyl)oxazol-5-yl)(4-(4-methylpyrazolo[1,5-a]pyridin-2-yl)-6,7-dihydro-1H-imidazo[4,5-c]pyridin-5(4H)-yl)methanone]",1 to 5
9,"O=C(c1oc(C2(O)CC2)nc1C(F)F)N1CCc2[nH]cnc2[C@H]1c1cc2c(C(F)(F)F)cccn2n1 [Example 1222, (S)-(4-(difluoromethyl)-2-(1-hydroxycyclopropyl)oxazol-5-yl)(4-(4-(trifluoromethyl)pyrazolo[1,5-a]pyridin-2-yl)-6,7-dihydro-1H-imidazo[4,5-c]pyridin-5(4H)-yl)methanone]",< 0.5
10,"O=C(c1oc(C2(O)CC2)nc1C(F)F)N1CCc2[nH]cnc2[C@@H]1c1cc2c(C(F)(F)F)cccn2n1 [Example 1223, (R)-(4-(difluoromethyl)-2-(1-hydroxycyclopropyl)oxazol-5-yl)(4-(4-(trifluoromethyl)pyrazolo[1,5-a]pyridin-2-yl)-6,7-dihydro-1H-imidazo[4,5-c]pyridin-5(4H)-yl)methanone]",1 to 5
11,"Cn1cc(-c2nnc(C(=O)N3CCc4[nH]cnc4[C@@H]3c3cc4cccc(F)n4n3)o2)cn1 [Example 1225, (R)-(4-(7-fluoropyrazolo[1,5-a]pyridin-2-yl)-6,7-dihydro-1H-imidazo[4,5-c]pyridin-5(4H)-yl)(5-(1-methyl-1H-pyrazol-4-yl)-1,3,4-oxadiazol-2-yl)methanone]",1 to 5
12,"CC(C)(F)c1nc(C(F)F)c(C(=O)N2CCc3[nH]cnc3[C@H]2c2cc3c(F)cccn3n2)o1 [Example 1226, (S)-(4-(difluoromethyl)-2-(2-fluoropropan-2-yl)oxazol-5-yl)(4-(4-fluoropyrazolo[1,5-a]pyridin-2-yl)-6,7-dihydro-1H-imidazo[4,5-c]pyridin-5(4H)-yl)methanone]",< 0.5
13,"CC(C)(F)c1nc(C(F)F)c(C(=O)N2CCc3[nH]cnc3[C@@H]2c2cc3c(F)cccn3n2)o1 [Example 1227, (R)-(4-(difluoromethyl)-2-(2-fluoropropan-2-yl)oxazol-5-yl)(4-(4-fluoropyrazolo[1,5-a]pyridin-2-yl)-6,7-dihydro-1H-imidazo[4,5-c]pyridin-5(4H)-yl)methanone]",0.5 to 1
14,"CC(C)(F)c1nc(C(F)F)c(C(=O)N2CCc3[nH]cnc3[C@@H]2c2cc3c(Cl)cccn3n2)o1 [Example 1229, (R)-(4-(4-chloropyrazolo[1,5-a]pyridin-2-yl)-6,7-dihydro-1H-imidazo[4,5-c]pyridin-5(4H)-yl)(4-(difluoromethyl)-2-(2-fluoropropan-2-yl)oxazol-5-yl)methanone]",0.5 to 1
15,"Cc1cccc2cc([C@@H]3c4nc[nH]c4CCN3C(=O)c3oc(C(C)(C)F)nc3C(F)F)nn12 [Example 1230, (S)-(4-(difluoromethyl)-2-(2-fluoropropan-2-yl)oxazol-5-yl)(4-(7-methylpyrazolo[1,5-a]pyridin-2-yl)-6,7-dihydro-1H-imidazo[4,5-c]pyridin-5(4H)-yl)methanone]",< 0.5
